Read-outs that look alike come from different tables or passages of the source.
What was measured:
[1] = In vitro stability in saline (radio-HPLC radiochemical purity); assay type: physicochemical; details: 4 h in saline at room temperature
Description: (§1) The in vitro stability of the [^99mTc]Tc-CNMCHDG complex was determined by measuring its radiochemical purity. The labeled [^99mTc]Tc-CNMCHDG complex solution was placed in saline at room temperature for 4 h, and the radiochemical purity of the complex was calculated using radio-HPLC data to determine whether the complex had good stability at room temperature. Then, 100 μL of labeled solution (1.8 MBq) and 200 μL of mouse serum were added to a centrifuge tube, and the tube was placed in an incubator at 37 °C for 4 h. At the end of the incubation, 600 μL of an acetonitrile solvent was added to the centrifuge tube. Subsequently, the supernatant was filtered through a 0.22-μm filter and taken for HPLC analysis after centrifugation.

[2] = In vitro stability in mouse serum (radio-HPLC radiochemical purity); assay type: in vitro ADME; details: 4 h in mouse serum at 37 °C
Description: as §1

[3] = Determination of the partition coefficient (log P); assay type: physicochemical; details: n-octanol / phosphate buffer (0.025 M, pH 7.4)
Description: To determine the partition coefficient, 1.4 mL of phosphate buffer (0.025 M, pH 7.4) and 1.5 mL of n-octanol was taken into a 5 mL centrifuge tube, to which 0.1 mL of the [^99mTc]Tc-CNMCHDG solution (2.4 MBq) was added into the centrifuge tube in turn. The solution was then vortexed for 3 min and centrifuged for 3 min (3000 r/min). Then, 0.1 mL was removed from the two phases with a pipette gun, respectively, and the radioactive counts of the two phases were measured and used to calculate the partition coefficient P. The final partition coefficient was expressed as log P ± SD.

A549 tumor cells = assay: In vitro cellular uptake studies; assay type: cell-based, Human; details: glucose-free DMEM, 1 h uptake
Description: Human alveolar basal epithelial cells from lung cancer cells (A549 cells) were used in in vitro cellular uptake studies. A549 cells in the logarithmic growth phase were collected, prepared in a cell suspension of 3 × 10^5 cells/mL DMEM medium, and seeded into a 24-well plate (1 mL/well). The cells were evenly dispersed in the holes by vibration. Afterwards, the well plate was placed in a 37 °C incubator with 5% CO2 overnight to enable the cells to grow and stick to the bottom of the wells. After the cells were attached to the wells, the medium in the well plate was aspirated and washed with 0.5 mL of glucose-free DMEM medium, followed by the addition of 0.5 mL of glucose-free DMEM for glucose deprivation. One hour later, 0.1 mL of glucose-free medium, D-glucose (2 mg), L-glucose (2 mg) and insulin (2 IU) were added to the wells, respectively, and the cells were preincubated for 15 min. Subsequently, 0.1 mL of [^99mTc]Tc-CNMCHDG complex solution (0.74 MBq) was added to each well, and the volume of the solution in the wells was made up to 1 mL using the glucose-free DMEM. The well plates continued to be incubated in a 37 °C incubator, and after 1 h, the medium was aspirated and washed twice with 0.5 mL of cold PBS solution (0.067 M, pH 7.4). The cells were lysed by adding 0.5 mL of a sodium hydroxide solution (1 M). Finally, the solution was transferred to plastic test tubes, and the radioactivity counts were measured using a γ-counter detector. This procedure was carried out four times for each group.

A549 tumor-bearing mice [4] = assay: Biodistribution in A549 tumor-bearing mice; assay type: in vivo, balb/c nude mice; details: for tumor uptake: i.v., n = 3
Description: (§2) Animal studies were performed according to the Regulation on Laboratory Animals of the Beijing Municipality and the guidelines of the Ethics Committee of Beijing Normal University (permit no. BNUCC-EAW-2022-001). The A549 tumor-bearing model mice were developed by injecting 2 × 10^6 A549 cells in 0.1 mL of F-12k medium subcutaneously into the armpit of the right upper limb of balb/c nude mice. Similarly, the S180 tumor-bearing model mice were developed by subcutaneously injecting 1 × 10^6 S180 cells in 0.1 mL of saline into the right upper limb of female Kunming mice. The biodistribution of the tumor-bearing mice was determined when the tumor grew to approximately 5 mm after about two weeks of feeding. The A549 tumor mice were injected with 0.1 mL of the radiolabeled [^99mTc]Tc-CNMCHDG or [^99mTc]Tc-CN7DG solution (0.37 MBq) through the tail vein and sacrificed after 30 and 120 min post-injection (n = 3). In addition, to test whether the [^99mTc]Tc-CNMCHDG complex was involved in the glucose transporter mechanism, saline (0.1 mL), 2-deoxy-D-glucose (6 mg per mouse) and insulin (0.25 units per mouse) were injected into S180 tumor mice half an hour before administering the radiolabeled complex, and the mice were sacrificed at 60 min post-injection (n = 5). The organs and tissues of interest, such as heart, liver, lung, kidney, spleen, stomach, bone, intestine and tumor, were dissected, wiped and weighed. Finally, the radioactivity count in these organs and tissues was measured using a γ-counter detector, and the final results were expressed as the percent uptake of injected dose per gram ± the standard deviation (%ID/g ± SD).

S180 tumor-bearing mice = assay: Biodistribution in S180 tumor-bearing mice with pre-treatment (uptake mechanism); assay type: in vivo, female Kunming mice
Description: as §2

A549 tumor-bearing mice [5] = assay: SPECT/CT imaging studies; assay type: in vivo
Description: The radiolabeled [^99mTc]Tc-CNMCHDG solution (18.5 MBq) was injected into the A549 tumor-bearing mice via the tail vein, and the SPECT imaging study was performed at 2 h post-injection. In the same tumor mice, at the end of radioactive metabolism, the [^99mTc]Tc-CN7DG solution (18.5 MBq) was injected similarly into the same mice through the tail vein. The mice were anesthetized with 1.5% isoflurane and placed on a SPECT/CT scanner for imaging. The imaging scan settings were as follows: CT scan (512 views, 2 × 2 binding, 75 kV) for 15 min, followed by SPECT acquisition (Peak 140 keV, 20% width, 90° rotation, MMP 919 collimator) after 4 min. HiSPECT software and Vivoquant 2.5 software (Trifoil imaging, CA, USA) were used to acquire the SPECT/CT images (n = 3).

[6] = Pharmacokinetic characteristics (blood time-activity); assay type: in vivo; details: healthy Kunming female mice
Description: Drug and Statistics (DAS) 3.2.8 software was used to calculate the pharmacokinetic parameters and to study the relationship between drug concentration and time based on the results. Time-activity curve of blood of [^99mTc]Tc-CNMCHDG in healthy kunming female mice was shown in Figure 6 and major pharmacokinetics parameters are listed in Table 1. […] In addition, the blood intake values were all lower than 0.1%ID/g at 90 min post-injection. According to the calculation results of the DAS 3.2.8 software, the distribution of [^99mTc]Tc-CNMCHDG in the blood was in accordance with the three-compartment mode.
Forty Kunming female mice were divided into eight groups and injected with 0.1 mL of [^99mTc]Tc-CNMCHDG (0.37 MBq) via tail vein, and were sacrificed at 2, 5, 10, 30, 60, 90, 120 and 240 min after injection, respectively. The blood samples were collected, weighed and counted a γ-counter detector to calculate the%ID/g value. The blood uptake-time curves were generated and analyzed by DAS 3.2.8 software.

[7] = S180 tumor-bearing mice, 60 min post-injection
[8] = blood, three-compartmental modeling (DAS 3.2.8), i.v.
[9] = blood, three-compartmental modeling, i.v.

Structure (SMILES): O=C(NC1C(O)OC(CO)C(O)C1O)C1CCC(C[N+]#[C][99Tc+]([C]#[N+]CC2CCC(C(=O)NC3C(O)OC(CO)C(O)C3O)CC2)([C]#[N+]CC2CCC(C(=O)NC3C(O)OC(CO)C(O)C3O)CC2)([C]#[N+]CC2CCC(C(=O)NC3C(O)OC(CO)C(O)C3O)CC2)([C]#[N+]CC2CCC(C(=O)NC3C(O)OC(CO)C(O)C3O)CC2)[C]#[N+]CC2CCC(C(=O)NC3C(O)OC(CO)C(O)C3O)CC2)CC1 (centres unmarked) [[^99mTc]Tc-CNMCHDG]
- radiochemical purity after incubation [1]: higher than 90%
- radiochemical purity after incubation [2]: higher than 90%
- partition coefficient (log P) [3]: −3.65 ± 0.10
- inhibition of cellular uptake by D-glucose (A549 tumor cells; D-glucose (2 mg) preincubated 15 min, p = 0.009): 29%
- change of cellular uptake by L-glucose (A549 tumor cells; L-glucose (2 mg) preincubated 15 min): not significantly changed
- increase of cellular uptake after insulin (A549 tumor cells; insulin (2 IU) preincubated 15 min, p = 0.002): 57%
- kidney uptake (A549 tumor-bearing mice [4]; 30 min post-injection): 6.54 ± 1.10 %ID/g
- liver uptake (A549 tumor-bearing mice [4]; 30 min post-injection): 2.74 ± 0.31 %ID/g
- lung uptake (A549 tumor-bearing mice [4]; 30 min post-injection): 1.98 ± 0.31 %ID/g
- tumor uptake (A549 tumor-bearing mice [4]; 30 min post-injection): 5.40 ± 0.29 %ID/g
- tumor uptake compared to [^99mTc]Tc-CN7DG (A549 tumor-bearing mice [4]; 120 min post-injection): slightly lower
- tumor/liver ratio (A549 tumor-bearing mice [4]; 120 min post-injection): 3.24 ± 0.25
- tumor/lung ratio (A549 tumor-bearing mice [4]; 120 min post-injection): 5.41 ± 0.39
- uptake in non-target organs such as liver and lung compared to [^99mTc]Tc-CN7DG (A549 tumor-bearing mice [4]; 120 min post-injection): significantly lower
- tumor uptake (A549 tumor-bearing mice [4]; 120 min post-injection): 4.42 ± 0.36 %ID/g
- tumor uptake (S180 tumor-bearing mice): 6.30 ± 0.56 %ID/g
- decrease of tumor uptake by D-glucose pre-treatment (S180 tumor-bearing mice; [7]): 43%
- increase of tumor uptake by insulin pre-treatment (S180 tumor-bearing mice; [7]): 35%
- tumor uptake (S180 tumor-bearing mice; S180 tumor-bearing mice, 60 min post-injection, pre-treatment with D-glucose, n = 5): 2.64 ± 0.48 %ID/g
- tumor uptake (S180 tumor-bearing mice; S180 tumor-bearing mice, 60 min post-injection, saline pre-treatment (control), n = 5): 4.66 ± 0.34 %ID/g
- route of metabolism/excretion in vivo (SPECT/CT signals in bladder and kidney) (A549 tumor-bearing mice [5]; A549 tumor-bearing mouse, 2 h after administration): mainly metabolized through the urine system
- visualization of the tumor by SPECT/CT (A549 tumor-bearing mice [5]; A549 tumor-bearing mouse, 2 h after administration, 18.5 MBq i.v.): clearly visualized
- SPECT/CT uptake in non-target areas (liver and kidney) compared to [^99mTc]Tc-CN7DG (A549 tumor-bearing mice [5]; same A549 tumor-bearing mouse, 2 h post-injection): significantly lower
- AUC(0-t) [6, 8]: 298.528 %ID/g × min
- AUC(0-∞) [6, 8]: 353.484 %ID/g × min
- t1/2α (blood distribution half-life) [6, 9]: 0.598 min
- t1/2β (elimination half-life, fast chamber) [6, 9]: 10.706 min
- t1/2γ (elimination half-life, slow chamber) [6, 9]: 218.932 min
- blood uptake value ([6]; 2 min post-injection, i.v., n = 5): 21.22 ± 2.00 %ID/g
- blood uptake value ([6]; 30 min post-injection): 1.50 ± 0.15 %ID/g
- blood uptake value ([6]; 60 min post-injection): 0.37 ± 0.16 %ID/g
- blood intake values ([6]; at 90 min post-injection): lower than 0.1 %ID/g
